Results published in PubChem BioAssay (NCI).
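Following 48 hours of exposure in 96-well plates, responses at five concentrations were used to interpolate endpoints linearly. TGI: concentration producing complete growth inhibition.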

Experiments:
Test in all cases: NCI-60 cell line screen, 48 h
OVCAR-5 ovarian = system: OVCAR-5 ovarian
COLO 205 colon = system: COLO 205 colon
M14 melanoma = system: M14 melanoma
HS 578T breast = system: HS 578T breast
SW-620 colon = system: SW-620 colon
MDA-MB-435 = system: MDA-MB-435
OVCAR-3 ovarian = system: OVCAR-3 ovarian
LOX IMVI melanoma = system: LOX IMVI melanoma
SK-MEL-5 melanoma = system: SK-MEL-5 melanoma
NCI-H522 lung = system: NCI-H522 lung
NCI-H226 lung = system: NCI-H226 lung

Row | SMILES | TGI (OVCAR-5 ovarian) [µM] | TGI (COLO 205 colon) [µM] | TGI (M14 melanoma) [µM] | TGI (HS 578T breast) [µM] | TGI (SW-620 colon) [µM] | TGI (MDA-MB-435) [µM] | TGI (OVCAR-3 ovarian) [µM] | TGI (LOX IMVI melanoma) [µM] | TGI (SK-MEL-5 melanoma) [µM] | TGI (NCI-H522 lung) [µM] | TGI (NCI-H226 lung) [µM]
1 | O=C(CSc1nc2ccccc2c(=O)n1-c1ccccc1)N=Nc1c(O)[nH]c2ccc(F)cc12 | 4.73 | 5.73 | 4.57 | > 100 | 15.2 | > 100 | 3.91 | > 100 | 15.4 | – | –
2 | NC(CSSCC(N)Cc1ccccc1)Cc1ccccc1 (configuration not stated) | > 100 | > 100 | 63.4 | – | > 100 | – | > 100 | 84.4 | 50.4 | 30.9 | –
3 | COc1ccc2c(c1)OC[C@@H]1c3cc(O)c(OCc4ccccc4)cc3O[C@H]21 | > 100 | 74.1 | 82.6 | – | 96.2 | – | > 100 | > 100 | 26.5 | 51.9 | 95.7
4 | COC(=O)c1c(O)ccc2c1c1c(n2Cc2ccccc2)C(=O)c2ccccc2C1 | – | 28.9 | > 100 | > 100 | > 100 | > 100 | > 100 | 69.5 | > 100 | – | > 100
5 | O=C1/C(=C/c2ccc(Br)cc2)CCC/C1=C\c1ccc(Br)cc1 | – | 28.4 | 11.5 | – | 89 | – | 15.9 | – | 27.1 | 39.2 | –
6 | O=C1NCCS(=O)(=O)N2CCC[C@@H]12 | > 100 | > 100 | > 100 | – | > 100 | – | > 100 | > 100 | > 100 | > 100 | > 100
7 | CCOC(=O)c1c(-c2cccc3ccccc23)c(C#N)c(=S)n(C2OC(COC(C)=O)C(OC(C)=O)C(OC(C)=O)C2OC(C)=O)c1C (configuration not stated) | > 100 | > 100 | > 100 | – | – | > 100 | > 100 | > 100 | > 100 | > 100 | > 100
8 | C=CC(C)(C)C(=C)C(=O)Nc1ccccc1I | > 100 | > 100 | > 100 | > 100 | > 100 | > 100 | > 100 | > 100 | > 100 | – | > 100
9 | CC1(C)N=C(c2ccccn2)C(c2ccccn2)=NC1(C)C | > 100 | > 100 | > 100 | – | > 100 | – | > 100 | > 100 | > 100 | – | > 100
